Test results: patent US20250179061A1 (SIRONAX LTD., priority 2022, published 2025)
pIC50: −log10 of the molar value.

test system: HT-29 cells; assay: HT-29 necroptosis cell viability assay (TNF-α/SMAC mimetic/zVAD-FMK, CellTiter-Glo); format: cell-based; conditions: Homo sapiens, HT-29, HT-29 cells, necroptosis induced by TNF-α/SMAC mimetic/zVAD-FMK, CellTiter-Glo; read-out: Activity (IC50 class)
Experimental: Compounds 1-702 of the disclosure were tested for biological activity, following the experimental procedures described below.
• Cell line: HT-29 (ATCC® HTB-38™) • Culture medium: McCOY's 5A, Gibco, Cat No. 16600-082 • FBS, Gibco, Cat No. 10099-141 C • Trypsin: Gibco, Cat No. 25200-056 • DMSO: Sigma, Cat No. 67-68-5, 1L • Assay plate: Corning #3903 • Compound dilution plate: Corning #3357 • Inducers: TNFα, GenScript, Cat No. Z01001-50, • SmacM, Cat. No., HY-15989, MedChemExpress (MCE) • Z_VAD FMK, TargetMol, T6013 • Cell Titer-Glo® Luminescent Cell Viability Assay Kit: Promega, Cat No. G7573 • EnVision: PerkinElmer, 2105-0010
• 1. HT-29 cells were checked every day to make sure that they were healthy and growing as expected. They were subjected to sub-culturing when they were approximately 80% confluent. • 2. The culture medium, McCOY's 5A medium (Gibco, Cat No. 16600-082) with 10% fetal bovine serum or FBS (Gibco, Cat No. 10099-141C), was pre-warmed in a 37° C. water bath for at least 30 min. • 3. When the cells had reached a desired level of confluency of 80% in a T75 flask, the medium was aspirated, and the cells were washed with warm phosphate buffered saline or PBS two times. • 4. 2-3 ml fresh warm trypsin (Gibco, Cat No. 25200-056) solution was added to the washed cells. The flask with the cells was transferred to a 37° C. incubator. • 5. After 5 minutes, the side of the flask was tapped, and the flask was examined under a microscope for detachment of the cells to the flask. If necessary, the cells were kept in the incubator for an additional 5-10 minutes, with occasional tapping, until lifting was complete. • 6. The trypsin reaction was neutralized by transferring 6-9 ml cell culture medium to sterile 15 ml conical tubes, and by centrifuging the cell culture at 300×g for 7 minutes to pellet the cells (supernatant decanted). • 7. The cells were resuspended in fresh cell culture medium and the cell counting was performed using a hemocytometer. • 8. 100 μl of the resuspended cell culture medium containing ˜5,000 cells were transferred into each well of the sterile 96-well cell culture plate (Corning 3903) and cultured overnight at 37° C. with 5% CO2.
• 1. All test compounds were dissolved in DMSO (Dimethyl sulfoxide) to create a 20 mM stock. • 2. 3 μl of 20 mM stock of each compound was mixed with 27 μl DMSO, and the compound solution was further diluted at a titration ratio of 1:3 (20 μl compound solution+40 μl DMSO) till the 10 points end. • 3. All culture medium was removed from assay plates filled with HT-29 cell cultures. The cells were then washed with 1 PBS, and resuspsended in fresh, FBS-free McCOY's 5A medium containing a cocktail of TNF-α (10 ng/ml), a SMAC mimetic compound (6 μM) and Z-VAD-fluoromethylketone or zVAD-FMK (10 μM) to stimulate the HT-29 cells to increase RIP1 kinase levels and necroptosis. • 4. 0.5 μL of the diluted compound solution was added to the corresponding 96-well assay plates. • 5. The assay plates were incubated for 20 hours at 37° C. with 5% CO2.
• 1. The CellTiter-Glo® Luminescent Cell Viability Assay was employed to detect the ATP levels of viable HT-29 cells. • 2. The CellTiter-Glo® buffer and the lyophilized substrate were equilibrated to room temperature prior to use. • 3. The CellTiter-Glo® substrate was resuspended with CellTiter-Glo® buffer, then mixed by gently vortexing to obtain a homogeneous solution. • 4. 20 μl of the enzyme/substrate mixture was transferred by multi-channel pipetting into 96-well assay plates. • 5. The assay plates were placed on an orbital shaker and the contents were shaken for 3 minutes to induce cell lysis. • 6. The assay plates were incubated at room temperature for 10 minutes to stabilize the luminescent signal. • 7. The luminescence signals were read and recorded with EnVision. • 8. The geometric mean IC50 values were calculated from 10 points response dose with duplicates. […]

| Compound | pIC50 |
| --- | --- |
| Cc1nc(C(N)=O)sc1Oc1ncc(-n2nc3n(c2=O)[C@H](c2ccccc2)CC3)cc1Cl (single isomer, unassigned) [Example 640] | > 7.00 |
| Cc1nc(C(N)=O)sc1Oc1ncc(-n2nc3n(c2=O)[C@@H](c2ccccc2)CC3)cc1Cl (single isomer, unassigned) [Example 641] | 5.00 to 6.00 |
| Cc1nc(C(N)=O)sc1Oc1ccc(-n2nc3n(c2=O)[C@H](c2ccc(F)cc2)CC3)cc1F (single isomer, unassigned) [Example 668] | > 7.00 |
| Cc1nc(C(N)=O)sc1Oc1ccc(-n2nc3n(c2=O)[C@@H](c2ccc(F)cc2)CC3)cc1F (single isomer, unassigned) [Example 669] | 5.00 to 6.00 |
| NC(=O)c1ncc(Oc2ccc(-n3nc4n(c3=O)[C@H](c3ccccc3)CC4)cc2F)s1 (single isomer, unassigned) [Example 670] | > 7.00 |

same assay, conditions: Homo sapiens; HT-29 cells stimulated with TNF-α (10 ng/ml), SMAC mimetic (6 μM) and zVAD-FMK (10 μM); 20 hours; CellTiter-Glo ATP luminescence; geometric mean IC50 from 10 points; read-out: Activity

| Compound | pIC50 |
| --- | --- |
| Cn1cc(C(N)=O)nc1Oc1ccc(-n2nc3n(c2=O)[C@H](c2ccccc2)CC3)cc1F (single isomer, unassigned) [Example 685] | 6.00 to 7.00 |
| CCc1c(Oc2ccc(-n3nc4n(c3=O)[C@H](c3ccccc3)CC4)cc2F)nsc1C(N)=O (single isomer, unassigned) [Example 686] | > 7.00 |
| NC(=O)c1nnc(Oc2ccc(-n3nc4n(c3=O)[C@H](c3ccccc3)CC4)cc2F)s1 (single isomer, unassigned) [Example 687] | > 7.00 |
| NC(=O)c1coc(Oc2ccc(-n3nc4n(c3=O)[C@H](c3ccccc3)CC4)cc2F)n1 (single isomer, unassigned) [Example 688] | 6.00 to 7.00 |
| Cc1cc(C(N)=O)sc1Oc1ccc(-n2nc3n(c2=O)[C@H](c2ccccc2)CC3)cc1F (single isomer, unassigned) [Example 689] | > 7.00 |
| Cc1c(Oc2ccc(-n3nc4n(c3=O)[C@H](c3ccccc3)CC4)cc2F)noc1C(N)=O (single isomer, unassigned) [Example 690] | > 7.00 |
| NC(=O)c1nnc(Oc2ccc(-n3nc4n(c3=O)[C@H](c3ccccc3)CC4)cc2F)o1 (single isomer, unassigned) [Example 691] | 5.00 to 6.00 |
| Cn1nc(C(N)=O)nc1Oc1ccc(-n2nc3n(c2=O)[C@H](c2ccccc2)CC3)cc1F (single isomer, unassigned) [Example 692] | > 7.00 |
| Cc1nc(C(N)=O)n(C)c1Oc1ccc(-n2nc3n(c2=O)[C@H](c2ccccc2)CC3)cc1F (single isomer, unassigned) [Example 693] | > 7.00 |
| Cc1cc(C(N)=O)oc1Oc1ccc(-n2nc3n(c2=O)[C@H](c2ccccc2)CC3)cc1F (single isomer, unassigned) [Example 694] | > 7.00 |
| Cc1c(C(N)=O)noc1Oc1ccc(-n2nc3n(c2=O)[C@H](c2ccccc2)CC3)cc1F (single isomer, unassigned) [Example 695] | > 7.00 |
| Cc1oc(C(N)=O)nc1Oc1ccc(-n2nc3n(c2=O)[C@H](c2ccccc2)CC3)cc1F (single isomer, unassigned) [Example 696] | > 7.00 |
| Cc1cc(C(N)=O)n(C)c1Oc1ccc(-n2nc3n(c2=O)[C@H](c2ccccc2)CC3)cc1F (single isomer, unassigned) [Example 697] | > 7.00 |
| Cc1nc(C(N)=O)sc1Oc1ccc(-n2nc3n(c2=O)[C@H](c2ccccc2F)C[C@@H]3F)cc1F (single isomer, unassigned) [Example 698] | > 7.00 |
| Cn1nc(C(N)=O)cc1Oc1ccc(-n2nc3n(c2=O)[C@H](c2ccccc2F)C[C@@H]3F)cc1F (single isomer, unassigned) [Example 699] | > 7.00 |
| Cc1nc(C(N)=O)sc1Oc1ccc(-n2nc3n(c2=O)[C@H](c2cncc(F)c2)CC3)cc1F (single isomer, unassigned) [Example 700] | > 7.00 |
| Cc1nc(C(N)=O)oc1Oc1ccc(-n2nc3n(c2=O)[C@H](c2c(F)cccc2F)CC3)cc1F (single isomer, unassigned) [Example 701] | > 7.00 |
| Cc1nc(C(N)=O)sc1Oc1ccc(-n2nc3n(c2=O)[C@H](C2CCCC2)CC3)cc1F (single isomer, unassigned) [Example 702] | > 7.00 |
| Cc1nc(Br)sc1Oc1ccc(-n2ncn(Cc3c(F)cccc3F)c2=O)cc1F [Example 1, 2-(4-((2-bromo-4-methylthiazol-5-yl)oxy)-3-fluorophenyl)-4-(2,6-difluorobenzyl)-2,4-dihydro-3H-1,2,4-triazol-3-one] | > 7.00 |
| Cc1ncsc1Oc1ccc(-n2ncn(Cc3c(F)cccc3F)c2=O)cc1F [Example 2, 4-(2,6-difluorobenzyl)-2-(3-fluoro-4-((4-methylthiazol-5-yl)oxy)phenyl)-2,4-dihydro-3H-1,2,4-triazol-3-one] | > 7.00 |
| Cc1ncsc1Oc1ccc(-n2ncn(Cc3c(F)cccc3F)c2=O)cc1Cl [Example 5, 2-(3-chloro-4-((4-methylthiazol-5-yl)oxy)phenyl)-4-(2,6-difluorobenzyl)-2,4-dihydro-3H-1,2,4-triazol-3-one] | > 7.00 |
| Cc1nc(Br)sc1Oc1ccc(-n2ncn(Cc3ccccc3C#N)c2=O)cc1F [Example 6, 2-((1-(4-((2-bromo-4-methylthiazol-5-yl)oxy)-3-fluorophenyl)-5-oxo-1-5-dihydro-4H-1,2,4-triazol-4-yl)methyl)benzonitrile] | 6.00 to 7.00 |
| Cc1nc(Br)sc1Oc1ccc(-n2ncn(Cc3c(F)cccc3C#N)c2=O)cc1F [Example 7, 2-((1-(4-((2-bromo-4-methylthiazol-5-yl)oxy)-3-fluorophenyl)-5-oxo-1,5-dihydro-4H-1,2,4-triazol-4-yl)methyl)-3-fluorobenzonitrile] | > 7.00 |
| Cc1ncsc1Oc1ccc(-n2ncn(Cc3ccccc3F)c2=O)cc1F [Example 8, 2-(3-fluoro-4-((4-methylthiazol-5-yl)oxy)phenyl)-4-(2-fluorobenzyl)-2,4-dihydro-3H-1,2,4-triazol-3-one] | > 7.00 |
| Cc1ncsc1Oc1ccc(-n2ncn(Cc3cc(Cl)ccn3)c2=O)cc1F [Example 9, 4-((4-chloropyridin-2-yl)methyl)-2-(3-fluoro-4-((4-methylthiazol-5-yl)oxy)phenyl)-2,4-dihydro-3H-1,2,4-triazol-3-one] | 6.00 to 7.00 |
| COC(=O)c1nc(C)c(Oc2ccc(-n3ncn(Cc4cc(Cl)ccn4)c3=O)cc2F)s1 [Example 10, methyl 5-(4-(4-((4-chloropyridin-2-yl)methyl)-5-oxo-4,5-dihydro-1H-1,2,4-triazol-1-yl)-2-fluorophenoxy)-4-methylthiazole-2-carboxylate] | 5.00 to 6.00 |
| Cc1nc(Oc2ccncc2)sc1-n1ncn(Cc2c(F)cccc2F)c1=O [Example 11, 4-(2,6-difluorobenzyl)-2-(4-methyl-2-(pyridin-4-yloxy)thiazol-5-yl)-2,4-dihydro-3H-1,2,4-triazol-3-one] | < 5.00 |
| O=c1n(-c2ccc(Oc3cc(Cl)ncc3F)c(F)c2)nc2n1C(c1ccccc1)CC2 (stereo not drawn) [Example 12, 2-(4-((2-chloro-5-fluoropyridin-4-yl)oxy)-3-fluorophenyl)-5-phenyl-2,5,6,7-tetrahydro-3H-pyrrolo[2,1-c][1,2,4]triazol-3-one] | > 7.00 |
